# Experimental data: patent US10758534B2 (Vertex Pharmaceuticals Incorporated, priority 2014, dated 2020)
# Biological target: T1, F508del (Homo sapiens, UniProt P13569, DEL508-508)
# T1 construct: expressed in transfected cells
# Test: Protocol 1: membrane potential optical assay (FLIPR III, voltage sensing dye), identification of potentiator compounds
# Format: cell-based
# Conditions: Table 3, compounds of Table 1
# In short: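 NIH 3T3 fibroblasts stably expressing F508del were cultured at 27° C for 24 hrs for temperature correction, then treated with compounds or DMSO and loaded with a voltage-sensing redistribution dye. Forskolin added with a Cl⁻ gradient activated the channel; membrane-potential fluorescence on FLIPR III reported increased gating.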
# T1 sequence (P13569 with tags, fused parts or gaps DEL508-508): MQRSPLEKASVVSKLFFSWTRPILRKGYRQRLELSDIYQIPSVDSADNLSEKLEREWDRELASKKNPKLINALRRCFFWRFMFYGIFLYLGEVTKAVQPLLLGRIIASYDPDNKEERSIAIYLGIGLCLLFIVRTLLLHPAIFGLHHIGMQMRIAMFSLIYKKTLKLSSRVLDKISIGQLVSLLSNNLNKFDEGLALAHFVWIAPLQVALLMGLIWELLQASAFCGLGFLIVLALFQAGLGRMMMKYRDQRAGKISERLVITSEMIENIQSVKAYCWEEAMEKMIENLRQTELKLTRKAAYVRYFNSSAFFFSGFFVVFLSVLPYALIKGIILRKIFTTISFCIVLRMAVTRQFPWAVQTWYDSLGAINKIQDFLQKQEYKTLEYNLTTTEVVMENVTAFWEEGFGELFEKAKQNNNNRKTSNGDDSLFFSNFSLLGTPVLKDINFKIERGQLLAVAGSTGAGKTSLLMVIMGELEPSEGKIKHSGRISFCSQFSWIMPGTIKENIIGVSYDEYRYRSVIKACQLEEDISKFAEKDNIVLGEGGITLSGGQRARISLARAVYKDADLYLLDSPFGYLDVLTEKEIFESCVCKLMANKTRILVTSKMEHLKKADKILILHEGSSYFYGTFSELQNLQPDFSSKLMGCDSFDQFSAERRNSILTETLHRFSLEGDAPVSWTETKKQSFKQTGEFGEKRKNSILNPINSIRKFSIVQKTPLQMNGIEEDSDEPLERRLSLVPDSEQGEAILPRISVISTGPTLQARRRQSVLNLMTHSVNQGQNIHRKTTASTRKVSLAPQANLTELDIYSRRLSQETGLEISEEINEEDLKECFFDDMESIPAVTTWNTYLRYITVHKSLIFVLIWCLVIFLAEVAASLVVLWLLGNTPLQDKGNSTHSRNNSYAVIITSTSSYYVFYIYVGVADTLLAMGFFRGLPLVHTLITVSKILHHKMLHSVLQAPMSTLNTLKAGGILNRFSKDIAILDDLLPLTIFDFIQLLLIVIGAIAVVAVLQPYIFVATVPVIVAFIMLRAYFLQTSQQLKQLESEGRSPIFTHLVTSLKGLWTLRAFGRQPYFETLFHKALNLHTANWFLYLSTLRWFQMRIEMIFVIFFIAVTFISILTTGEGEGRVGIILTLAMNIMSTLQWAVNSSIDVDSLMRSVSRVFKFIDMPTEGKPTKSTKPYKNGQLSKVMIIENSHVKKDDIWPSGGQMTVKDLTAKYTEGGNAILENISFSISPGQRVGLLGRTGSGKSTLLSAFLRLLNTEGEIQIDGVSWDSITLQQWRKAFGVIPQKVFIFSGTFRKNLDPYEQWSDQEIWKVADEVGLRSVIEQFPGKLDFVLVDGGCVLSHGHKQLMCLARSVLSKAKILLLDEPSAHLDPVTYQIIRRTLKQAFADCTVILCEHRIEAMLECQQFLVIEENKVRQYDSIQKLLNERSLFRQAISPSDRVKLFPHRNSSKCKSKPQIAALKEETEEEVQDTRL
row,SMILES,EC30
1,"COc1ccc(-c2ccc(C(=O)NS(=O)(=O)c3ccc[nH]c3=O)c(N3C[C@@H](C)CC3(C)C)n2)c(OC)n1 [Compound 1853, 6-(2,6-dimethoxy-3-pyridyl)-N-[(2-oxo-1H-pyridin-3-yl)sulfonyl]-2-[(4S)-2,2,4-trimethylpyrrolidin-1-yl]pyridine-3-carboxamide]",++ (“++” means between 3 uM and 10 uM)
2,"C[C@@H]1CN(c2nc(-c3ccc(F)c(F)c3)ccc2C(=O)NS(=O)(=O)c2cccnc2N)C(C)(C)C1 [Compound 1854, N-[(2-amino-3-pyridyl)sulfonyl]-6-(3,4-difluorophenyl)-2-[(4S)-2,2,4-trimethylpyrrolidin-1-yl]pyridine-3-carboxamide]",+++ (“+++” means <3 uM)
3,"CCOc1nn(-c2ccc(C(=O)NS(=O)(=O)c3ccc[nH]c3=O)c(N3C[C@@H](C)CC3(C)C)n2)cc1C [Compound 1856, 6-(3-ethoxy-4-methyl-pyrazol-1-yl)-N-[(2-oxo-1H-pyridin-3-yl)sulfonyl]-2-[(4S)-2,2,4-trimethylpyrrolidin-1-yl]pyridine-3-carboxamide]",+++ (“+++” means <3 uM)
4,"C[C@@H]1CN(c2nc(-c3cccc4ccccc34)ccc2C(=O)NS(=O)(=O)c2cccnc2N)C(C)(C)C1 [Compound 1857, N-[(2-amino-3-pyridyl)sulfonyl]-6-(1-naphthyl)-2-[(4S)-2,2,4-trimethylpyrrolidin-1-yl]pyridine-3-carboxamide]",+++ (“+++” means <3 uM)
5,"COc1ccc(-c2ccc(C(=O)NS(=O)(=O)c3ccc[nH]c3=O)c(N3C[C@@H](C)CC3(C)C)n2)c(F)c1 [Compound 1858, 6-(2-fluoro-4-methoxy-phenyl)-N-[(2-oxo-1H-pyridin-3-yl)sulfonyl]-2-[(4S)-2,2,4-trimethylpyrrolidin-1-yl]pyridine-3-carboxamide]",++ (“++” means between 3 uM and 10 uM)
6,"COc1ncccc1S(=O)(=O)NC(=O)c1cc2ccc(C)cc2nc1N1C[C@@H](C)CC1(C)C [Compound 1859, N-[(2-methoxy-3-pyridyl)sulfonyl]-7-methyl-2-[(4S)-2,2,4-trimethylpyrrolidin-1-yl]quinoline-3-carboxamide]",+++ (“+++” means <3 uM)
7,"CCOc1ccc(-c2ccc(C(=O)NS(=O)(=O)c3cccnc3N)c(N3C[C@@H](C)CC3(C)C)n2)cc1C [Compound 1860, N-[(2-amino-3-pyridyl)sulfonyl]-6-(4-ethoxy-3-methyl-phenyl)-2-[(4S)-2,2,4-trimethylpyrrolidin-1-yl]pyridine-3-carboxamide]",+++ (“+++” means <3 uM)
8,"COc1cccc(-c2cnc(N3CC(C)CC3(C)C)c(C(=O)NS(=O)(=O)c3cccc(N)n3)c2)n1 (centres unmarked) [Compound 1861, N-[(6-amino-2-pyridyl)sulfonyl]-5-(6-methoxy-2-pyridyl)-2-(2,2,4-trimethylpyrrolidin-1-yl)pyridine-3-carboxamide]",+++ (“+++” means <3 uM)
9,"CCc1ccnc(Nc2cccc(S(=O)(=O)NC(=O)c3cccnc3N3CC(C)CC3(C)C)n2)c1 (centres unmarked) [Compound 1862, N—[[6-[(4-ethyl-2-pyridyl)amino]-2-pyridyl]sulfonyl]-2-(2,2,4-trimethylpyrrolidin-1-yl)pyridine-3-carboxamide]",+++ (“+++” means <3 uM)
10,"CC1CN(c2ncccc2C(=O)NS(=O)(=O)c2cccc(NCc3nccs3)n2)C(C)(C)C1 (centres unmarked) [Compound 1865, N—[[6-(thiazol-2-ylmethylamino)-2-pyridyl]sulfonyl]-2-(2,2,4-trimethylpyrrolidin-1-yl)pyridine-3-carboxamide]",++ (“++” means between 3 uM and 10 uM)
11,"COc1ccc(-c2ccc(C(=O)NS(=O)(=O)c3cccnc3N)c(N3C[C@@H](C)CC3(C)C)n2)c(C)n1 [Compound 1866, N-[(2-amino-3-pyridyl)sulfonyl]-6-(6-methoxy-2-methyl-3-pyridyl)-2-[(4S)-2,2,4-trimethylpyrrolidin-1-yl]pyridine-3-carboxamide]",+++ (“+++” means <3 uM)
12,"CCOc1cc(F)ccc1-c1ccc(C(=O)NS(=O)(=O)c2ccc[nH]c2=O)c(N2C[C@@H](C)CC2(C)C)n1 [Compound 1867, 6-(2-ethoxy-4-fluoro-phenyl)-N-[(2-oxo-1H-pyridin-3-yl)sulfonyl]-2-[(4S)-2,2,4-trimethylpyrrolidin-1-yl]pyridine-3-carboxamide]",+++ (“+++” means <3 uM)
13,"C[C@@H]1CN(c2nc(C3CCCCO3)ccc2C(=O)NS(=O)(=O)c2ccccc2)C(C)(C)C1 (stereo partly drawn) [Compound 1868, N-(benzenesulfonyl)-6-tetrahydropyran-2-yl-2-[(4S)-2,2,4-trimethylpyrrolidin-1-yl]pyridine-3-carboxamide]",+++ (“+++” means <3 uM)
14,"COc1cc(F)cc(-c2ccc(C(=O)NS(=O)(=O)c3cccnc3N)c(N3C[C@@H](C)CC3(C)C)n2)c1 [Compound 1869, N-[(2-amino-3-pyridyl)sulfonyl]-6-(3-fluoro-5-methoxy-phenyl)-2-[(4S)-2,2,4-trimethylpyrrolidin-1-yl]pyridine-3-carboxamide]",+++ (“+++” means <3 uM)
15,"CCN(CCOC)c1cccc(S(=O)(=O)NC(=O)c2cccnc2N2CC(C)CC2(C)C)n1 (centres unmarked) [Compound 1870, N—[[6-[ethyl(2-methoxyethyl)amino]-2-pyridyl]sulfonyl]-2-(2,2,4-trimethylpyrrolidin-1-yl)pyridine-3-carboxamide]",++ (“++” means between 3 uM and 10 uM)
16,"Cc1ccc(-c2ccc(C(=O)NS(=O)(=O)c3cccnc3N)c(N3C[C@@H](C)CC3(C)C)n2)c(C)c1 [Compound 1871, N-[(2-amino-3-pyridyl)sulfonyl]-6-(2,4-dimethylphenyl)-2-[(4S)-2,2,4-trimethylpyrrolidin-1-yl]pyridine-3-carboxamide]",+++ (“+++” means <3 uM)
17,"CC1CN(c2ncccc2C(=O)NS(=O)(=O)c2cccc(Nc3ccccc3Cl)n2)C(C)(C)C1 (centres unmarked) [Compound 1872, N—[[6-(2-chloroanilino)-2-pyridyl]sulfonyl]-2-(2,2,4-trimethylpyrrolidin-1-yl)pyridine-3-carboxamide]",+++ (“+++” means <3 uM)
18,"C[C@@H]1CN(c2nc(-c3cccc(F)c3)ccc2C(=O)NS(=O)(=O)c2cccnc2N)C(C)(C)C1 [Compound 1873, N-[(2-amino-3-pyridyl)sulfonyl]-6-(3-fluorophenyl)-2-[(4S)-2,2,4-trimethylpyrrolidin-1-yl]pyridine-3-carboxamide]",+++ (“+++” means <3 uM)
19,"CC1CN(c2ncccc2C(=O)NS(=O)(=O)c2cccc(OCC3CCC=CO3)n2)C(C)(C)C1 (centres unmarked) [Compound 1874, N—[[6-(3,4-dihydro-2H-pyran-2-ylmethoxy)-2-pyridyl]sulfonyl]-2-(2,2,4-trimethylpyrrolidin-1-yl)pyridine-3-carboxamide]",+++ (“+++” means <3 uM)
20,"CC1CN(c2ncccc2C(=O)NS(=O)(=O)c2cccc(Oc3ccc4cccnc4c3)n2)C(C)(C)C1 (centres unmarked) [Compound 1875, N—[[6-(7-quinolyloxy)-2-pyridyl]sulfonyl]-2-(2,2,4-trimethylpyrrolidin-1-yl)pyridine-3-carboxamide]",++ (“++” means between 3 uM and 10 uM)
21,"COc1ccc(S(=O)(=O)NC(=O)c2ccc(-c3cc(F)cc(OCC(C)C)c3)nc2N2C[C@@H](C)CC2(C)C)cc1 [Compound 1876, 6-(3-fluoro-5-isobutoxy-phenyl)-N-(4-methoxyphenyl)sulfonyl-2-[(4S)-2,2,4-trimethylpyrrolidin-1-yl]pyridine-3-carboxamide]",+++ (“+++” means <3 uM)
22,"CC(=O)N1CCc2cc(Nc3cccc(S(=O)(=O)NC(=O)c4cccnc4N4CC(C)CC4(C)C)n3)ccc21 (centres unmarked) [Compound 1877, N—[[6-[(1-acetylindolin-5-yl)amino]-2-pyridyl]sulfonyl]-2-(2,2,4-trimethylpyrrolidin-1-yl)pyridine-3-carboxamide]",++ (“++” means between 3 uM and 10 uM)
23,"COc1cc(OC)cc(-c2ccc(C(=O)NS(=O)(=O)c3ccc[nH]c3=O)c(N3C[C@@H](C)CC3(C)C)n2)c1 [Compound 1878, 6-(3,5-dimethoxyphenyl)-N-[(2-oxo-1H-pyridin-3-yl)sulfonyl]-2-[(4S)-2,2,4-trimethylpyrrolidin-1-yl]pyridine-3-carboxamide]",++ (“++” means between 3 uM and 10 uM)
24,"CC1CN(c2ncccc2C(=O)NS(=O)(=O)c2cccc(NCCCN(C)c3ccccc3)n2)C(C)(C)C1 (centres unmarked) [Compound 1879, N—[[6-[3-(N-methylanilino)propylamino]-2-pyridyl]sulfonyl]-2-(2,2,4-trimethylpyrrolidin-1-yl)pyridine-3-carboxamide]",+++ (“+++” means <3 uM)
25,"COc1c(C)cccc1-c1ccc(C(=O)NS(=O)(=O)c2ccc[nH]c2=O)c(N2C[C@@H](C)CC2(C)C)n1 [Compound 1880, 6-(2-methoxy-3-methyl-phenyl)-N-[(2-oxo-1H-pyridin-3-yl)sulfonyl]-2-[(4S)-2,2,4-trimethylpyrrolidin-1-yl]pyridine-3-carboxamide]",++ (“++” means between 3 uM and 10 uM)
26,"C/C=C/COc1cccc(S(=O)(=O)NC(=O)c2cccnc2N2CC(C)CC2(C)C)n1 (centres unmarked) [Compound 1881, N—[[6-[(E)-but-2-enoxy]-2-pyridyl]sulfonyl]-2-(2,2,4-trimethylpyrrolidin-1-yl)pyridine-3-carboxamide]",+++ (“+++” means <3 uM)
27,"CC(C)CS(=O)(=O)N1CCC=C(c2ccc(C(=O)NS(=O)(=O)c3cccc(N)n3)c(N3C[C@@H](C)CC3(C)C)n2)C1 [Compound 1882, N-[(6-amino-2-pyridyl)sulfonyl]-6-(1-isobutylsulfonyl-3,6-dihydro-2H-pyridin-5-yl)-2-[(4S)-2,2,4-trimethylpyrrolidin-1-yl]pyridine-3-carboxamide]",+ (“+” means greater than 10 uM)
28,C[C@@H]1CN(c2nc(C(C)(C)C)c(C(O)C(O)C(C)(C)C)cc2C(=O)NS(=O)(=O)c2cccc(N)n2)C(C)(C)C1 (some centres unmarked) [Compound 1883],+++ (“+++” means <3 uM)
29,"CC1CCC(Oc2cccc(S(=O)(=O)NC(=O)c3cccnc3N3CC(C)CC3(C)C)n2)C1 (centres unmarked) [Compound 1884, N—[[6-(3-methylcyclopentoxy)-2-pyridyl]sulfonyl]-2-(2,2,4-trimethylpyrrolidin-1-yl)pyridine-3-carboxamide]",+++ (“+++” means <3 uM)
